According to patent US20230404998A1, “Combination Therapies for Treating Cancer” (ASCENTAGE PHARMA (SUZHOU) CO., LTD., priority 2020, published 2023):

Assays:
Conditions in all cases: read-out: Anti-proliferation (IC50)
BaF3(Bcr-Abl) 7253H = BaF3(Bcr-Abl) 7253H (Homo sapiens, UniProt P00519, Y253H, cells depend on it)
Method: (§1) The anti-proliferative effect was determined by a water-soluble tetrazolium (WST)-based assay using Cell Counting Kit-8 (CCK-8, #D3100L4057, Shanghai life ilab bio technology co., LTD, China). Cells were seeded in 96-well plates and treated with different concentrations of test articles. […] Each treatment was tested in triplicates. The plate was then cultured at 37° C. with 5% CO2 for 72 hours. At the end of treatments, 20 μl/well of CCK-8 reagent was directly added to each wells. The plate was then incubated at 37° C. with 5% CO2 for 2-4 h. The OD value was detected at 450 nm on a microplate reader (SpectraMax I3X, Molecular Devices, US). IC50 values were calculated with Graphpad Prism 7.0 software using nonlinear regression (curve fitting) type data analysis. For combination effect assay, the cells viability was normalized using the mean OD value of triplicated wells for the single agent control.

BaF3(Bcr-Abl) E255K = BaF3(Bcr-Abl) E255K (Homo sapiens, UniProt P00519, E255K, cells depend on it)
Method: as §1

BaF3(Bcr-Abl) E255V = BaF3(Bcr-Abl) E255V (Homo sapiens, UniProt P00519, E255V, cells depend on it)
Method: as §1

BaF3(Bcr-Abl) E459L = BaF3(Bcr-Abl) E459L (Homo sapiens, UniProt P00519, cells depend on it, form not given)
Method: as §1

BaF3(Bcr-Abl) F311I = BaF3(Bcr-Abl) F311I (Homo sapiens, UniProt P00519, F311I, cells depend on it)
Method: as §1

BaF3(Bcr-Abl) F317L = BaF3(Bcr-Abl) F317L (Homo sapiens, UniProt P00519, F317L, cells depend on it)
Method: as §1

[1] = biological target: BaF3(Bcr-Abl) F317L-F359V (Homo sapiens, UniProt P00519, F317L/F359V, cells depend on it)
Method: as §1

[2] = biological target: BaF3(Bcr-Abl) F317L-M351T (Homo sapiens, UniProt P00519, F317L/M351T, cells depend on it)
Method: as §1

BaF3(Bcr-Abl) F359V = BaF3(Bcr-Abl) F359V (Homo sapiens, UniProt P00519, F359V, cells depend on it)
Method: as §1

BaF3(Bcr-Abl) G250E = BaF3(Bcr-Abl) G250E (Homo sapiens, UniProt P00519, G250E, cells depend on it)
Method: as §1

[3] = biological target: BaF3(Bcr-Abl) G250E-V299L (Homo sapiens, UniProt P00519, G250E/V299L, cells depend on it)
Method: as §1

BaF3(Bcr-Abl) M351T = BaF3(Bcr-Abl) M351T (Homo sapiens, UniProt P00519, M351T, cells depend on it)
Method: as §1

BaF3(Bcr-Abl) T3151 = BaF3(Bcr-Abl) T3151 (Homo sapiens, UniProt P00519, T315I, cells depend on it)
Method: as §1

BaF3(Bcr-Abl) T315I-255K = BaF3(Bcr-Abl) T315I-255K (Homo sapiens, UniProt P00519, E255K/T315I, cells depend on it)
Method: as §1

[4] = biological target: BaF3(Bcr-Abl) T315I-E255V (Homo sapiens, UniProt P00519, E255V/T315I, cells depend on it)
Method: as §1

[5] = biological target: BaF3(Bcr-Abl) T315I-E453K (Homo sapiens, UniProt P00519, T315I/E453K, cells depend on it)
Method: as §1

[6] = biological target: BaF3(Bcr-Abl) T315I-F317L (Homo sapiens, UniProt P00519, T315I/F317L, cells depend on it)
Method: as §1

[7] = biological target: BaF3(Bcr-Abl) T315I-F359V (Homo sapiens, UniProt P00519, T315I/F359V, cells depend on it)
Method: as §1

[8] = biological target: BaF3(Bcr-Abl) T315I-H396R (Homo sapiens, UniProt P00519, T315I/H396R, cells depend on it)
Method: as §1

[9] = biological target: BaF3(Bcr-Abl) T315I-M351T (Homo sapiens, UniProt P00519, T315I/M351T, cells depend on it)
Method: as §1

BaF3(Bcr-Abl) T315M = BaF3(Bcr-Abl) T315M (Homo sapiens, UniProt P00519, T315M, cells depend on it)
Method: as §1

BaF3(Bcr-Abl) T35I-F311I = BaF3(Bcr-Abl) T35I-F311I (Homo sapiens, UniProt P00519, F311I/T315I, cells depend on it)
Method: as §1

BaF3(Bcr-Abl) V299L = BaF3(Bcr-Abl) V299L (Homo sapiens, UniProt P00519, V299L, cells depend on it)
Method: as §1

BaF3(Bcr-Abl) V299L-F39V = BaF3(Bcr-Abl) V299L-F39V (Homo sapiens, UniProt P00519, V299L/F359V, cells depend on it)
Method: as §1

BaF3(Bcr-Abl) Wild-type = BaF3(Bcr-Abl) Wild-type (Homo sapiens, UniProt P00519)
Method: as §1

[10] = biological target: BaF3(Bcr-Abl) Y253H-E255V (Homo sapiens, UniProt P00519, Y253H/E255V, cells depend on it)
Method: as §1

## Cc1ccc(C(=O)Nc2ccc(CN3CCN(C)CC3)c(C(F)(F)F)c2)cc1C#Cc1cnc2[nH]ncc2c1 [HQP1351, 3-(2-(1H-pyrazolo[3,4-b]pyridin-5-yl)ethynyl)-4-methyl-N-(4-((4-methylpiperazin-1-yl)methyl)-3-(trifluoromethyl)phenyl)-benzamide]
BaF3(Bcr-Abl) 7253H
  GI50: 7 ± 1 nM
BaF3(Bcr-Abl) E255K
  GI50: 22 ± 13 nM
BaF3(Bcr-Abl) E255V
  GI50: 27 ± 11 nM
BaF3(Bcr-Abl) E459L
  GI50: 106 nM
BaF3(Bcr-Abl) F311I
  GI50: 23 ± 13 nM
BaF3(Bcr-Abl) F317L
  GI50: 8 ± 3 nM
[1]
  GI50: 25 ± 13 nM
[2]
  GI50: 32 ± 25 nM
BaF3(Bcr-Abl) F359V
  GI50: 50 ± 16 nM
BaF3(Bcr-Abl) G250E
  GI50: 29 ± 4 nM
[3]
  GI50: 14 ± 2 nM
BaF3(Bcr-Abl) M351T
  GI50: 9 ± 1 nM
BaF3(Bcr-Abl) T3151
  GI50: 24 ± 10 nM
BaF3(Bcr-Abl) T315I-255K
  GI50: 40 ± 5 nM
[4]
  GI50: 26 ± 11 nM
[5]
  GI50: 61 ± 27 nM
[6]
  GI50: 117 ± 23 nM
[7]
  GI50: 20 ± 10 nM
[8]
  GI50: 79 ± 54 nM
[9]
  GI50: 67 ± 44 nM
BaF3(Bcr-Abl) T315M
  GI50: 217 ± 131 nM
BaF3(Bcr-Abl) T35I-F311I
  GI50: 78 ± 46 nM
BaF3(Bcr-Abl) V299L
  GI50: 8 ± 4 nM
BaF3(Bcr-Abl) V299L-F39V
  GI50: 32 ± 4 nM
BaF3(Bcr-Abl) Wild-type
  GI50: 6 nM
[10]
  GI50: 122 nM
